Experimental data published in ChEMBL document CHEMBL1129670, “Synthesis and structure-activity relationships of N-propyl-N-(4-pyridinyl)-1H-indol-1-amine (besipirdine) and related analogs as potential therapeutic agents for Alzheimer's disease” (J Med Chem, 1996).

How the values were obtained:
Rattus norvegicus [1] = organism: Rattus norvegicus; experiment: Inhibitory activity against [3H]5-HT uptake in rat whole brain; assay type: functional
[2] = molecular target: Neuronal acetylcholine receptor; experiment: Inhibitory activity against [3H]-NMCC binding to nicotinic receptors in rat cortex
Glutamate NMDA receptor [3] = experiment: Inhibitory activity against [3H]-CPP binding to NMDA receptor in rat cortex
Mus musculus [4] = organism: Mus musculus; details: dose 0.63 mg/kg; route subcutaneous
Description: Antagonistic activity against Scopolamine induced behavioral deficits in mice at dose 0.63 mg/kg sc

Rattus norvegicus [5] = organism: Rattus norvegicus; experiment: Inhibitory activity against [3H]norepinephrine (NE) uptake in rat hypothalamus; assay type: functional
Mus musculus [6] = organism: Mus musculus; experiment: Antagonistic activity against Scopolamine induced behavioral deficits in mice; 5/6; assay type: functional
[7] = molecular target: Kappa-type opioid receptor (Cavia porcellus, UniProt P41144); experiment: Inhibitory activity against [3H]bremazocine binding to kappa opioid receptor in guinea pig cerebellum; assay type: tissue-based
D(2) dopamine receptor = D(2) dopamine receptor (Rattus norvegicus, UniProt P61169); experiment: Inhibitory activity against [3H]spiroperidol bingind to Dopamine receptor D2 in rat striatum; assay type: tissue-based
[8] = molecular target: Voltage-dependent L-type calcium channel subunit alpha-1C (Rattus norvegicus, UniProt P22002); experiment: Inhibition of [3H]nitrendipine binding to [Ca2+] channel of rat heart
[9] = molecular target: T1, 5-hydroxytryptamine receptor 1A (Rattus norvegicus, UniProt P19327); experiment: Inhibitory activity against [3H]DPAT binding to 5-HT1A receptor in rat hippocampus; assay type: tissue-based
T1 sequence (P19327 whole entry): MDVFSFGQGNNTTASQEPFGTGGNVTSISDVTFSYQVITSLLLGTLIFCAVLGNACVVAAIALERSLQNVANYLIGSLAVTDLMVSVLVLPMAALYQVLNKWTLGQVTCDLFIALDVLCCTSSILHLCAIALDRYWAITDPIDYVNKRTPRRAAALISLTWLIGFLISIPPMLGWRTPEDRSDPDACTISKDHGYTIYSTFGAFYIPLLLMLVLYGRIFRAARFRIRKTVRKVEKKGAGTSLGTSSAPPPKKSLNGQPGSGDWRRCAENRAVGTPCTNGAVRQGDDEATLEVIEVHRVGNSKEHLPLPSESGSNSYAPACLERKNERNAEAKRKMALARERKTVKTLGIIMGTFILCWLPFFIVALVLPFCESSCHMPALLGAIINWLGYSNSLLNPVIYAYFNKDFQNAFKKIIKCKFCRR

Rattus norvegicus [10] = organism: Rattus norvegicus; experiment: Inhibitory activity against [3H]dopamine uptake in rat striatum; assay type: functional
Glutamate NMDA receptor [11] = experiment: Inhibitory activity against [3H]TCP binding to Phencyclidine receptor in rat cortex
[12] = molecular target: T2, Adrenergic receptor alpha-2 (Rattus norvegicus, UniProt P22086+P19328+P22909); experiment: Inhibitory activity against [3H]yohimbine binding to Alpha-2 adrenergic receptor in rat cortex
T2 sequence (P22086 whole entry): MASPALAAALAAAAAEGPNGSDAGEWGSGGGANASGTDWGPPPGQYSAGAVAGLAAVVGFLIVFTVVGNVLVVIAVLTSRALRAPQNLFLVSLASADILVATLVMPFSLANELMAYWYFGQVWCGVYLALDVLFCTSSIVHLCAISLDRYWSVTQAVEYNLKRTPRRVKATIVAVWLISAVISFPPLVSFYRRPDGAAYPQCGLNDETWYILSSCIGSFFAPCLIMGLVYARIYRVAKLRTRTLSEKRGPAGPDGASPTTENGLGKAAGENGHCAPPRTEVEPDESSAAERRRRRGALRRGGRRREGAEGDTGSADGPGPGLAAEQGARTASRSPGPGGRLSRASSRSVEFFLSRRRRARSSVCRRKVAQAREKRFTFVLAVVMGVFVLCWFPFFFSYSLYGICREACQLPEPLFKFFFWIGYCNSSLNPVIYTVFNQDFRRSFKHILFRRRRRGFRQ
T2 sequence (P19328 whole entry): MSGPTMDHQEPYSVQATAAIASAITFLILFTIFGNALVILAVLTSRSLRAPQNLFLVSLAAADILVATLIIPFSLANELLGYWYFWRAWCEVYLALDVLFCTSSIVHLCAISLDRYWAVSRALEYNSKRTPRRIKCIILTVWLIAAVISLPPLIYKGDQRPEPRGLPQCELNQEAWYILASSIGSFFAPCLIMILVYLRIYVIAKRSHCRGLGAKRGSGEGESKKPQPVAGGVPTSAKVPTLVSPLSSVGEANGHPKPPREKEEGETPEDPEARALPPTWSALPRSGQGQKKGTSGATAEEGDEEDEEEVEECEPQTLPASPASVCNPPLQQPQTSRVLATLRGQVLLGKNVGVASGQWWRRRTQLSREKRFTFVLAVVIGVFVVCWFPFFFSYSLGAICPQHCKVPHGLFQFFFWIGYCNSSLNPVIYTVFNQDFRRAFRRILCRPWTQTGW
T2 sequence (P22909 whole entry): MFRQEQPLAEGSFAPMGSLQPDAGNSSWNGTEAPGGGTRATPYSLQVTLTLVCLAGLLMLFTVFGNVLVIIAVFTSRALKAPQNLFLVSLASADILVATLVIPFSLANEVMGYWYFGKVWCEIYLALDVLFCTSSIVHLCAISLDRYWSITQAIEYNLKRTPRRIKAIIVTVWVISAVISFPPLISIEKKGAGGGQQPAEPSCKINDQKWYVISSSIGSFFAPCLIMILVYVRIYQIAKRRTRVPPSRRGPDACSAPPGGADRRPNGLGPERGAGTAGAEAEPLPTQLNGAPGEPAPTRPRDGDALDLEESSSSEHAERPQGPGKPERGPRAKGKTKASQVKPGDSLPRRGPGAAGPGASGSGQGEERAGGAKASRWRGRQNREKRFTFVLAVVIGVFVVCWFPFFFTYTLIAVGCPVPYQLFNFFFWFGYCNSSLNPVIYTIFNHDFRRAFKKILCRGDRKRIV

[13] = molecular target: T3, Muscarinic acetylcholine receptor M1 (Rattus norvegicus, UniProt P08482); experiment: Inhibitory activity against [3H]pirenzepine binding to muscarinic M1 receptor in rat cortex
T3 sequence (P08482 whole entry): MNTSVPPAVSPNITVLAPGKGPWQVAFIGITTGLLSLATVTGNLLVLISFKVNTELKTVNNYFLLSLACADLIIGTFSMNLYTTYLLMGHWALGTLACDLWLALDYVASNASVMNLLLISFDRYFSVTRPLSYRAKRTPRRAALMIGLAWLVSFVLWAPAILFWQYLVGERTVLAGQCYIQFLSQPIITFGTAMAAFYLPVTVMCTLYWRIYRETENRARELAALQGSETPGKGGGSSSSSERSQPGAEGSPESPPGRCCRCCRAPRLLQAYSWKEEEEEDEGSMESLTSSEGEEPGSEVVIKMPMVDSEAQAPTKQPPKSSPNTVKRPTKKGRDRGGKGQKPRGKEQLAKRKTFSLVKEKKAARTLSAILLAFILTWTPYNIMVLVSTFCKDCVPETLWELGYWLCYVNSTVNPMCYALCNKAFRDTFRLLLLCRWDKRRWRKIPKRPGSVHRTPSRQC

Kappa-type opioid receptor, sequence (P41144 whole entry): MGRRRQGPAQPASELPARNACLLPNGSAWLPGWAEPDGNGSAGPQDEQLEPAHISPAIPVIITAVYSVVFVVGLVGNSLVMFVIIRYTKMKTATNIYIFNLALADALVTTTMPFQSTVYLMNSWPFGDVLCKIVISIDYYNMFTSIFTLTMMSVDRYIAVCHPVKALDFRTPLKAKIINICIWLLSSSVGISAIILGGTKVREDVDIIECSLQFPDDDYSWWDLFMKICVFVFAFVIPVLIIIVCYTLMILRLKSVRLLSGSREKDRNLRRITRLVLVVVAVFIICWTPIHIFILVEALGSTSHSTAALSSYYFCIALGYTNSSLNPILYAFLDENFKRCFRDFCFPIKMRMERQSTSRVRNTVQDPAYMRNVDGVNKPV
D(2) dopamine receptor, sequence (P61169 whole entry): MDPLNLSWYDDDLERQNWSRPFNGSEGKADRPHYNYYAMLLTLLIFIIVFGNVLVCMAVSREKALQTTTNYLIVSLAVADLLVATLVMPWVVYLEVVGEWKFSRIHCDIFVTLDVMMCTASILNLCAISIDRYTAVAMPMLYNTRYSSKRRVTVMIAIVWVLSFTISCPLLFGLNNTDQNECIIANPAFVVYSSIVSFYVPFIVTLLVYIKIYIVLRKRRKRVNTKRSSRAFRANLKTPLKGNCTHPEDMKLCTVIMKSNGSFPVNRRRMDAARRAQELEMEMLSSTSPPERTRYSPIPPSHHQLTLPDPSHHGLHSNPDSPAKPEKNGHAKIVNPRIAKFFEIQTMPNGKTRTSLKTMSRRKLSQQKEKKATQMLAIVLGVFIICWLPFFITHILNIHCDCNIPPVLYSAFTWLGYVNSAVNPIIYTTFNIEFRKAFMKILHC
Voltage-dependent L-type calcium channel subunit alpha-1C, sequence (P22002 whole entry): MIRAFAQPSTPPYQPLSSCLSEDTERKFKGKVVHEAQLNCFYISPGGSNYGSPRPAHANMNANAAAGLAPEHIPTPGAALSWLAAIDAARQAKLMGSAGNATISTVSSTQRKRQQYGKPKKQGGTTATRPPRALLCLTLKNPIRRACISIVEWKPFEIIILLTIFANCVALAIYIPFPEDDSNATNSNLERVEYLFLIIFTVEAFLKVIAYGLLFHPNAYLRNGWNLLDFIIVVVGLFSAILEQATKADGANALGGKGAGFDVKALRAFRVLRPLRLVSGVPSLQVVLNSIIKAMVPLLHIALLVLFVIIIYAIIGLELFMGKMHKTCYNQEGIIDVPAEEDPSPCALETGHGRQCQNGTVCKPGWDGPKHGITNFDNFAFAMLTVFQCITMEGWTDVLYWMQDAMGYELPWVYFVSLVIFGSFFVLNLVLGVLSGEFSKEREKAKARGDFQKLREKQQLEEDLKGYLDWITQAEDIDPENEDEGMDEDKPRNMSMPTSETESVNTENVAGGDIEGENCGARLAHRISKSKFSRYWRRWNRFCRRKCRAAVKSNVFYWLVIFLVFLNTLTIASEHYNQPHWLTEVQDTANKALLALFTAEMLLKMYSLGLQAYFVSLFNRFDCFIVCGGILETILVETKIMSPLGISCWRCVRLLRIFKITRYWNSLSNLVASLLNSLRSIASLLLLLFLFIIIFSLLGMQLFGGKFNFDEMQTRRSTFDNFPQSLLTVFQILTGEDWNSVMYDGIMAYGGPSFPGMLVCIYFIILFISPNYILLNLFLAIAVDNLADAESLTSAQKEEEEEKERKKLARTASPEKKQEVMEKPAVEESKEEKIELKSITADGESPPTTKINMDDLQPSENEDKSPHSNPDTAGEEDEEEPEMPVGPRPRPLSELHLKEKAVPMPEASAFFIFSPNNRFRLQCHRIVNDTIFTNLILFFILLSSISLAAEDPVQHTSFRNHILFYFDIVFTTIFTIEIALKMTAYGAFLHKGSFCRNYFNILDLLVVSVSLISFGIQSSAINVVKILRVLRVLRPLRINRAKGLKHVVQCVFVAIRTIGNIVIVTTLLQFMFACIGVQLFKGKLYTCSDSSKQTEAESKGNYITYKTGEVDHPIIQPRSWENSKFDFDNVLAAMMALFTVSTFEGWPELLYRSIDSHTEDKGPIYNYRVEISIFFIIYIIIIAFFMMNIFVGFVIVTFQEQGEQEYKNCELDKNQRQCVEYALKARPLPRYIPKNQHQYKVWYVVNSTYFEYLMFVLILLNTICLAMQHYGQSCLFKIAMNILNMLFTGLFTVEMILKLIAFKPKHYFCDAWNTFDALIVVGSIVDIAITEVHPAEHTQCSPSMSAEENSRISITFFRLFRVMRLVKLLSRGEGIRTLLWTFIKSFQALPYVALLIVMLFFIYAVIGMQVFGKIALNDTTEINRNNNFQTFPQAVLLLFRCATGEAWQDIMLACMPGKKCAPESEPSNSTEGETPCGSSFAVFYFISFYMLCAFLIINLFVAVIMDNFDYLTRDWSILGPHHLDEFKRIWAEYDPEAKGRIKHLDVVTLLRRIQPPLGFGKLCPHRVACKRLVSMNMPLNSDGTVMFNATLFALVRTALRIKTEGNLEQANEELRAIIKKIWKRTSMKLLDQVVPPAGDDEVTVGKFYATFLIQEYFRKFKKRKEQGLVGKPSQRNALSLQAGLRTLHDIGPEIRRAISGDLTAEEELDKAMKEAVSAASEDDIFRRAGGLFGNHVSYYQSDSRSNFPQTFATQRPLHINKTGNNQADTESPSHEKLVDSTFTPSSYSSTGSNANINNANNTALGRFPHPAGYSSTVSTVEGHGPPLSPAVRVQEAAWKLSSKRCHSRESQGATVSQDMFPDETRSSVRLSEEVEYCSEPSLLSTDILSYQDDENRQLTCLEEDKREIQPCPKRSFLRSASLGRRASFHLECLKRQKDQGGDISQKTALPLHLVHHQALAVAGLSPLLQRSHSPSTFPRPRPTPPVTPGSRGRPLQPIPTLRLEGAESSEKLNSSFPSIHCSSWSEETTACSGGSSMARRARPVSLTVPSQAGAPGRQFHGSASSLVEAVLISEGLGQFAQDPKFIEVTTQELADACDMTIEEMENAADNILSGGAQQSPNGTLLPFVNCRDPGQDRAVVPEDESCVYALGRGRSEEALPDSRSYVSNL

CCCN(c1ccncc1)n1ccc2ccccc21 [BESIPIRDINE]
IC50 (Rattus norvegicus [1]): 2600 nM | IC50 [2]: > 20000 nM | IC50 (Glutamate NMDA receptor [3]): > 20000 nM | Response (Mus musculus [4]): 40% | IC50 (Rattus norvegicus [5]): 270 nM | Antagonism (Mus musculus [6]): 5 | IC50 [7]: > 10000 nM | IC50 (D(2) dopamine receptor): > 20000 nM | IC50 [8]: > 100000 nM | IC50 [9]: < 20000 nM | IC50 (Rattus norvegicus [10]): 410 nM | IC50 (Glutamate NMDA receptor [11]): > 20000 nM | IC50 [12]: 250 nM | IC50 [13]: 1300 nM
